Assay results: ChEMBL document CHEMBL3832035, “DailyMed|setid=5c133dfe-3cb5-426b-ac30-daf814e12c47 | FAMCICLOVIR - famciclovir tablet, film coated|Golden State Medical Supply, Inc”
Several values for one entry are separate records, joined by “and”; a condition that tells them apart may be missing. Equal values may be shown once.

System: Homo sapiens
Assay: Mean pharmacokinetic parameters for Penciclovir following single dose oral or IV administration of […] to healthy adult subjects and patients with different degrees of renal impairment.
Type: ADME, organism-based
Set-up: dose 1000 mg, dose 250 mg, dose 125 mg, dose 500 mg, route oral
Details: in vivo, regimen Single dose; for Excretion: tissue Urine
[1] = iv, dosed compound id 4, dosed compound name PENCICLOVIR, gender male, tissue Plasma
[2] = po, dose 500 mg, dosed compound id 40, dosed compound name FAMCICLOVIR, gender male, tissue Plasma

- Excretion (iv, 5 mg/kg, dosed compound id 4, dosed compound name PENCICLOVIR, gender male, study dosing duration 24 hours): 91%
- F (iv, at 400 mg, dosed compound id 4, dosed compound name PENCICLOVIR, gender male, route oral, tissue Plasma): 77%
- Vd_beta (iv, dose 400 mg, dosed compound id 4, dosed compound name PENCICLOVIR, gender male, tissue Plasma): 1.08 L/kg
- CL [1]: 36.6 L/h
- t1/2 [1]: 2 h
- Excretion (po, at 500 mg, dosed compound id 40, dosed compound name FAMCICLOVIR, gender male, study dosing duration 72 hours): 82%
- CL_renal (po, dose 500 mg, dosed compound id 40, dosed compound name FAMCICLOVIR, gender female, tissue Plasma): 21.8 L/h
- CL_renal [2]: 28.5 L/h and 27.7 L/h
- Tmax [2]: 0.9 h
- t1/2 [2]: 2.3 h
- AUC (po, dosed compound id 40, dosed compound name FAMCICLOVIR, gender female, tissue Plasma): 11100 ng·h/mL
- AUC (po, dosed compound id 40, dosed compound name FAMCICLOVIR, gender male, tissue Plasma): 9300 ng·h/mL
SMILES: Nc1nc2c(ncn2CCC(CO)CO)c(=O)[nH]1 [PENCICLOVIR]
